We go through 1 molecule from ChEMBL document CHEMBL5385876, “Discovery of unglycosylated indolocarbazoles as ROCK2 isoform-selective inhibitors for the treatment of breast cancer metastasis” (Eur J Med Chem, 2023).

Calls of active or inactive are those of the source. The rule behind the calls is not given here. Bounds are passed on as bounds.

The target of series [1] is Mitogen-activated protein kinase kinase kinase 5 (Homo sapiens, UniProt Q99683). Put plainly: Inhibition of ASK1 (unknown origin).
Sequence of Mitogen-activated protein kinase kinase kinase 5 (Q99683 whole entry, the tested form may be a part): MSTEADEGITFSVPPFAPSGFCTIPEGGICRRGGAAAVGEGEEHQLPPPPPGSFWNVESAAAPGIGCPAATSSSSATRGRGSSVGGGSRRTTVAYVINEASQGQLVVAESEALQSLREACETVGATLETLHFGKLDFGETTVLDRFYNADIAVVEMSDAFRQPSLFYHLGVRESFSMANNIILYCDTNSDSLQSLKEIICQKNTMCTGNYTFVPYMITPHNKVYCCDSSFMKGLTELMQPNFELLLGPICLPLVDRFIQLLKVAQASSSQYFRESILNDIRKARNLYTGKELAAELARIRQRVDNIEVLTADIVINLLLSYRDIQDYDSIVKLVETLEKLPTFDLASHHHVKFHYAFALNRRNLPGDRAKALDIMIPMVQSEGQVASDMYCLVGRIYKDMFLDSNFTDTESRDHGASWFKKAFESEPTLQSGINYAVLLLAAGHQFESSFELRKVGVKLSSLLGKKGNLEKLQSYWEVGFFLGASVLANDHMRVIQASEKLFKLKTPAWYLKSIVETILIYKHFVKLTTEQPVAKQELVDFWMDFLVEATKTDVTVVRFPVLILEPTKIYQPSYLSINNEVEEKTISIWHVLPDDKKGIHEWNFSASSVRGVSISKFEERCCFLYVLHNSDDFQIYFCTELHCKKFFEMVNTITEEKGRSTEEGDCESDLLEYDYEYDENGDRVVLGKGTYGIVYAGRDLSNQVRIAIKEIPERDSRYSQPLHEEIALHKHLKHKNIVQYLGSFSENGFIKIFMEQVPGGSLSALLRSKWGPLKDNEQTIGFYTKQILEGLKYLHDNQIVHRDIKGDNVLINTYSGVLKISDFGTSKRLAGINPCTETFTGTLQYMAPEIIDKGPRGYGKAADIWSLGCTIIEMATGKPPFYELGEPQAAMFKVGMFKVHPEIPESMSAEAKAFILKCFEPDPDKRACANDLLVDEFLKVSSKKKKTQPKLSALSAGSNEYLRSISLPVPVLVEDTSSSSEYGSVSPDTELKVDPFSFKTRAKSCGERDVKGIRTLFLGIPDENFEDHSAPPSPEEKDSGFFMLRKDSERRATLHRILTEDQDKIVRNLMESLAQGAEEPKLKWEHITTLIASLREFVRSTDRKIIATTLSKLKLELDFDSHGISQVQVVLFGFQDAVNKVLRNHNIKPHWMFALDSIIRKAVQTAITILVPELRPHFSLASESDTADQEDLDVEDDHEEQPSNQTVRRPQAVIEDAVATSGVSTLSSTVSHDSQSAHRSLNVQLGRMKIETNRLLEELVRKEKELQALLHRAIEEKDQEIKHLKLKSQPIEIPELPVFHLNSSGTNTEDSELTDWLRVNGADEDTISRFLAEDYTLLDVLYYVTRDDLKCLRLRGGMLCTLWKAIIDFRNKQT
The nature of series [2]: Selectivity index, ratio of IC50 for ROCK2 (unknown origin) to IC50 for N-terminal His10-StrepII tagged human ROCK2 catalytic domain (1 to 553 residues) expressed in Sf9 insect cells.
Series [3] has as its target Serine/threonine-protein kinase Chk1 (Homo sapiens) (UniProt O14757). Nature of the series: Inhibition of human recombinant CHK1 at 125 nM.
In series [4] the target is Ribosomal protein S6 kinase alpha-6 (Homo sapiens) (UniProt Q9UK32). Nature of the series: Inhibition of human recombinant RSK4 at 125 nM.
Sequence of Ribosomal protein S6 kinase alpha-6 (Homo sapiens) (Q9UK32 whole entry): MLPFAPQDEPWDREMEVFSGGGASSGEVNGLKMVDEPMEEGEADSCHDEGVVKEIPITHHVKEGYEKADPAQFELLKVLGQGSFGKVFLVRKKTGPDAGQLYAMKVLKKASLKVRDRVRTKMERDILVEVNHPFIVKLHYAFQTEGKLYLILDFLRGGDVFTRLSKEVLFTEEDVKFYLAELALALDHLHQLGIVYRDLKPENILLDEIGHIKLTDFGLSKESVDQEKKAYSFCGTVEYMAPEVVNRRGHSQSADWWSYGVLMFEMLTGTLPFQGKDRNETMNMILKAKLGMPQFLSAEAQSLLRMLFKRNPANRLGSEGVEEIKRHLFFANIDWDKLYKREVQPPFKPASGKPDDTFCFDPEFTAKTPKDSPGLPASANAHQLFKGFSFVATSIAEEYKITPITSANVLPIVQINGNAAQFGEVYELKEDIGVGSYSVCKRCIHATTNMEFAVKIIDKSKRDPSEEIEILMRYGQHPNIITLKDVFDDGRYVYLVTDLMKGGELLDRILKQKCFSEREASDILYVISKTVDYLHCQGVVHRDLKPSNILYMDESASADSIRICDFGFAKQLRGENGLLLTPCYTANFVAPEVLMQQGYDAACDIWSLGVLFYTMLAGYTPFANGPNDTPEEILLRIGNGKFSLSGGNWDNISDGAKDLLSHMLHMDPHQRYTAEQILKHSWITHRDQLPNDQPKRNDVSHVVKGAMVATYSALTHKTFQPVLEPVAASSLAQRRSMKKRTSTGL
The target in series [5] is Signal transducer and activator of transcription 3 (Homo sapiens) (UniProt P40763). Nature of the series: Inhibition of STAT3 transcriptional activity in human MDA-MB-231 cells assessed as reduction in MMP2 mRNA level at 5 uM incubated for 24 hrs by qRT-PCR analysis. The class given is cell-based. On the technique in general: In qPCR the cycle at which signal appears reflects the starting amount.
Sequence of Signal transducer and activator of transcription 3 (Homo sapiens) (P40763 whole entry, the tested form may be a part): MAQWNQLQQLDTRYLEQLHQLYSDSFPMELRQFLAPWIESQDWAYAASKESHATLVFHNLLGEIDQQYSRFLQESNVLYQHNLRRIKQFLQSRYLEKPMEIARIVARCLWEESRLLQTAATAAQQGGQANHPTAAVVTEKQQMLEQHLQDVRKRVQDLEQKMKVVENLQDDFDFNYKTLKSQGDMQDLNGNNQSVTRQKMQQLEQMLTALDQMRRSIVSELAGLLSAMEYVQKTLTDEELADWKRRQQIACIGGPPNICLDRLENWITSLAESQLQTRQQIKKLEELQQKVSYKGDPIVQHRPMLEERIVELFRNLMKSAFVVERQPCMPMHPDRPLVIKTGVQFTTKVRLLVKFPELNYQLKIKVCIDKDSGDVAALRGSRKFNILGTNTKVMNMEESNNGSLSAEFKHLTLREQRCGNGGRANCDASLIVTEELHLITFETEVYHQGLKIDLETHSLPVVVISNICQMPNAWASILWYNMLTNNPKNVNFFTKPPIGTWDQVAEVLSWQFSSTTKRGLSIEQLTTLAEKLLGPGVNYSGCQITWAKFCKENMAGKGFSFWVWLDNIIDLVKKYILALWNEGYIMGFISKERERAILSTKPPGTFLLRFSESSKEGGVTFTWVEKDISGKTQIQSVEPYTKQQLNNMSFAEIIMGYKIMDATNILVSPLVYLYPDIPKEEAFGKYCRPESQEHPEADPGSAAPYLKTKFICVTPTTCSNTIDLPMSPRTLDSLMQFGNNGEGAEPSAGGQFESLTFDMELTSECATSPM

Series [6] concerns MDA-MB-231. Put plainly: Upregulation of phosphorylated STAT5A protein expression in human MDA-MB-231 cells at 0.5 uM incubated for 24 hrs by Western blot analysis. The class given is functional, cell-based. (In general: A western blot detects proteins with antibodies after separation by electrophoresis.)
For series [7], the system named is SK-OV-3. Put plainly: Inhibition of cell invasion in human SK-OV-3 cells at 1.25 to 10 uM incubated for 48 hrs by crystal violet staining based transwell assay. The conditions noted are these: dose 1.25-10 µM. Type of series: functional.
The subject of series [8] is MDA-MB-231. Put plainly: Antimetastatic activity in human MDA-MB-231 cells assessed as increase in nuclear scales at 5 uM incubated for 24 hrs by FITC-conjugated phalloidin staining based confocal microscopic analysis. Type of series: functional, cell-based.
For series [9], the target named is Signal transducer and activator of transcription 3 (Homo sapiens) (UniProt P40763). Put plainly: Inhibition of STAT3 activation in human MDA-MB-231 cells assessed as reduction in phosphorylated STAT3 nuclear translocation at 5 uM incubated for 24 hrs by immunofluorescence analysis. The class given is cell-based.
Series [10] can be described thus: Selectivity index, ratio of IC50 for PKCdelta (unknown origin) to IC50 for N-terminal His10-StrepII tagged human ROCK2 catalytic domain (1 to 553 residues) expressed in Sf9 insect cells.
Series [11] relates to MDA-MB-231. Put plainly: Downregulation of phosphorylated STAT3 protein expression in human MDA-MB-231 cells at 0.5 uM incubated for 24 hrs by Western blot analysis. The class given is functional, cell-based.
Series [12] deals with T1, Rho-associated protein kinase 2 (Homo sapiens, UniProt O75116). Nature of the series: Binding affinity to wild type N-terminal His10-StrepII tagged human ROCK2 catalytic domain (1 to 553 residues) expressed in Sf9 insect cells assessed as change in melting temperature at 50 uM by SYPRO orange dye based thermal shift assay.
T1 sequence (O75116 whole entry, looked up, the tested form may be a part): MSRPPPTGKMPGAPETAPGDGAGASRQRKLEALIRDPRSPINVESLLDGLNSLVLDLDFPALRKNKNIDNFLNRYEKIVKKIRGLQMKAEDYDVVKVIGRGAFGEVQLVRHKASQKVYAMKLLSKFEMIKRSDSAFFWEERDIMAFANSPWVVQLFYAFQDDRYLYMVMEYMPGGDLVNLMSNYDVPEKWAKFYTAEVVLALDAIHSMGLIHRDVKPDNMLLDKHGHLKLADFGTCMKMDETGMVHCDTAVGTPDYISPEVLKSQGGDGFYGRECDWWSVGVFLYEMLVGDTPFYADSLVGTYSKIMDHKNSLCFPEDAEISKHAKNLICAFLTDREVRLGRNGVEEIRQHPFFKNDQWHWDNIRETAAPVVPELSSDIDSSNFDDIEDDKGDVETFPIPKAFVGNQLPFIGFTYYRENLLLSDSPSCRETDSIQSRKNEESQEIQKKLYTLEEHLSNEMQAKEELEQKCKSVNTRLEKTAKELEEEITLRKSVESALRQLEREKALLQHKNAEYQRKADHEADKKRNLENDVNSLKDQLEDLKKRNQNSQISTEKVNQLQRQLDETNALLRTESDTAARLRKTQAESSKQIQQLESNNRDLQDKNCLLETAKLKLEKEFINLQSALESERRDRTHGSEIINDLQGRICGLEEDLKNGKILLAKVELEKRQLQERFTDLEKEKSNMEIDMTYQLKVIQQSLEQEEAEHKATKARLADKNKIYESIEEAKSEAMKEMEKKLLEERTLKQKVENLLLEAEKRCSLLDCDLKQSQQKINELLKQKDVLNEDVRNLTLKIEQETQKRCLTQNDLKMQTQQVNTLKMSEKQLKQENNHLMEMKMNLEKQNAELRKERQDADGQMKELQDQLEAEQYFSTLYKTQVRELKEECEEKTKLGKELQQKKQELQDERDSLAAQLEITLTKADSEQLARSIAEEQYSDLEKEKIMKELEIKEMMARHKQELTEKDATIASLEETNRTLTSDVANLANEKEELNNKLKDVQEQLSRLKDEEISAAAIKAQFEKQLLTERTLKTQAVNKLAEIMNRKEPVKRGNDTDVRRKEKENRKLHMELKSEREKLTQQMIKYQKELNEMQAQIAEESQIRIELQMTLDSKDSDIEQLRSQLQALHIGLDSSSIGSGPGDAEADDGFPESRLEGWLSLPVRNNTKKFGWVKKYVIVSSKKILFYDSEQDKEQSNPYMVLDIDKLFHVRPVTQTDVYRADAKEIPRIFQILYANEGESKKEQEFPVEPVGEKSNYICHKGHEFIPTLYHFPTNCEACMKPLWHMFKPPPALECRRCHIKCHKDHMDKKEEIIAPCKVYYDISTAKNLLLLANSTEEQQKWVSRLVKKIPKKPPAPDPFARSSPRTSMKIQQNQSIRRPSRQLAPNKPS
Series [13] can be described thus: Volume of distribution at steady state in ICR mouse at 15 mg/kg, iv administered as single dose and measured for 8 hrs by LC-MS/MS analysis. The class given is ADME, organism-based. The settings on record: in vivo, read-out: Vdss.
Series [14] concerns the target Serine/threonine-protein kinase pim-1 (Homo sapiens, UniProt P11309). Nature of the series: Inhibition of PIM1 (unknown origin).
The subject of series [15] is MDA-MB-231. Nature of the series: Antimetastatic activity in human MDA-MB-231 cells assessed as appearance of disordered and sparse actin filament at 5 uM incubated for 24 hrs by SEM analysis. Type of series: functional, cell-based.
Series [16] relates to SK-OV-3. Nature of the series: Inhibition of cell migration in human SK-OV-3 cells at 1.25 to 10 uM incubated for 48 hrs by scratch wound healing assay. The class given is functional, cell-based. The conditions noted are these: dose 1.25-10 µM.
The target of series [17] is T1, Rho-associated protein kinase 2. Put plainly: Binding affinity to ROCK2 in human MDA-MB- 231 cells assessed as stabilization at 100 uM and 52 to 61 degreeC incubated for 5 mins by CETSA. Type of series: cell-based.
Series [18] relates to MDA-MB-231. Nature of the series: Upregulation of phosphorylated STAT6 protein expression in human MDA-MB-231 cells at 0.5 uM incubated for 24 hrs by Western blot analysis. Type of series: functional, cell-based.
Series [19] deals with MDA-MB-231. Nature of the series: Inhibition of cell invasion in human MDA-MB-231 cells incubated for 48 hrs by crystal violet staining based transwell assay. Type of series: functional. The conditions noted are these: dose 1.25-10 µM.

Sequence of Serine/threonine-protein kinase Chk1 (Homo sapiens) (O14757 whole entry): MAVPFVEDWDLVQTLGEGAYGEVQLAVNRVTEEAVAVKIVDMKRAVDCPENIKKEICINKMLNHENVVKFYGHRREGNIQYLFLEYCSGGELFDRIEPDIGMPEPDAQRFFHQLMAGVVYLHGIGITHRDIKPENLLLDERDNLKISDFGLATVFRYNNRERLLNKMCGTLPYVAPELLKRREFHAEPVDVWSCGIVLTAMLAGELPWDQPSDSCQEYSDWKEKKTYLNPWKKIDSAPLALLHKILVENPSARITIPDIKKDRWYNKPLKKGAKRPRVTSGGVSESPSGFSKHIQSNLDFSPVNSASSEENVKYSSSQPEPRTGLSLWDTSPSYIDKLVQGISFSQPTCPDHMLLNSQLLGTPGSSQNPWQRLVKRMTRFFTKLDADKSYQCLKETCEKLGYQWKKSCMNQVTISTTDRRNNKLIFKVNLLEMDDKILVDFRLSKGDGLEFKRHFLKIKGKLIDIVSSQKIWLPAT
Sequence of Serine/threonine-protein kinase pim-1 (P11309 whole entry): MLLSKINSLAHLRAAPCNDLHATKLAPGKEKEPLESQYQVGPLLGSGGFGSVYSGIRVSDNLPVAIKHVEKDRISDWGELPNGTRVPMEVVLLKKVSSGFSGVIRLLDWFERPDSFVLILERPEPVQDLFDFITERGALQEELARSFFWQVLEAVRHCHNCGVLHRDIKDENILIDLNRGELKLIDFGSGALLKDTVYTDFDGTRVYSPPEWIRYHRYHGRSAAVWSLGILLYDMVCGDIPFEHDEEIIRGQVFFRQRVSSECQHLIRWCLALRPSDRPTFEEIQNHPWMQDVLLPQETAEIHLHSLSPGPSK

What is called IC50 is the concentration needed to halve the response being measured. Read a high IC50 as lower potency. Take `O=C1NCc2c1c1c3cc(O)ccc3[nH]c1c1[nH]c3ccccc3c21`: the figures for the IC50 in series [1] and in series [14] were 944 nM and 308 nM, respectively. For the same molecule, the Ratio IC50 in series [2] was over 100; in series [10], over 10. The inhibition result (in series [3]; in series [4]; in series [5]; with SK-OV-3 [7]; in [9]; in the series with SK-OV-3 [16]) was “Active” throughout. Besides, the outcome (with MDA-MB-231 [6]; in the series with MDA-MB-231 [8]; in the series with MDA-MB-231 [11]; in series [12]; in the series on MDA-MB-231 [15]; in series [17]) was Active. Moreover, in the series with MDA-MB-231 [18], the result was Active. Besides, in series [13], the Vd turned out to be 0.32 L/kg. In the series with MDA-MB-231 [19], the inhibition result is “Dose-Dependent Effect”.
